In patent publication US11020395B2, “Cycloalkyl substituted triazole compounds as agonists of the APJ receptor” (AMGEN INC., priority 2016, dated 2021):
pEC50: −log10 of the molar value.

How the values were obtained:
[1] = molecular target: human APJ-AT1R double stable CHO cell line (Homo sapiens (Human), UniProt P35414); experiment: IP1 accumulation (TR-FRET) assay with AngII in human APJ-AT1R double stable CHO cell line; format: cell-based; settings: in the presence of AngII and APJ small molecule agonists
human APJ-AT1R double stable CHO cell line, sequence (P35414 whole entry): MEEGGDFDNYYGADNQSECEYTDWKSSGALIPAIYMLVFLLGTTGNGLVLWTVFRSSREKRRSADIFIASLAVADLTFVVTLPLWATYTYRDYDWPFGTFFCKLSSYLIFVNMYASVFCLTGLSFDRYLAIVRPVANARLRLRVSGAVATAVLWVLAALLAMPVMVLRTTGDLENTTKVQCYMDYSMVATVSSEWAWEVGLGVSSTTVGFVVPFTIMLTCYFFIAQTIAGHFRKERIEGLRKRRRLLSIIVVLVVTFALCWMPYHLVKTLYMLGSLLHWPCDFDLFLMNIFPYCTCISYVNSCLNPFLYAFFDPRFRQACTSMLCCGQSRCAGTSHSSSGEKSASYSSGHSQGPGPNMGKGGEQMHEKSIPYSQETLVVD
Experimental: The function of the inositol phosphate accumulation (IP1) was measured by Time-resolved fluorescence resonance energy (TR-FRET) at 620 nm and 665 nm respectively.
The plate was sealed and incubated for 1 hour.

[2] = system: heart failure rats; experiment: Cardiac function with APJ small molecule agonists in the presence of ACE inhibitor captopril in heart failure rats in vivo; parameters: species or system rat; settings: captopril alone, acute settings
From the text: The interaction between […] (ACE2) and Apelin biology is complicated. To investigate the interaction between the Apelin-APJ and ACE signalling pathways, we examined the improvement in cardiac function with APJ small molecule agonists in the presence of ACE inhibitor captopril in heart failure rats in vivo. […] However, in the presence of an APJ agonist, there was a shift in potency to the left with marked improvement in contractility and ejection fraction without changes in heart rate. These findings provide a new reference for the understanding of the regulation of ACE2 for the renin angiotensin aldosterone system (RAAS), independent of AT1R signaling and offer new potential drug targets for the treatment of diseases such as hypertension and heart failure. This work clearly establishes that combination of an agonist of the APJ receptor with an ARB such as losartan and/or with an ACE inhibitor such as captopril which may play an important role in providing greater efficacy in treating heart failure patients, for example in improving contractility and ejection fraction without changing the heart rate.

[3] = molecular target: human APJ receptor (Homo sapiens (Human), UniProt P35414); experiment: [35S]GTPγS binding assay on membranes from CHO cells stably expressing human APJ receptor; format: biochemical; settings: [35S]GTPγS SPA, read-out: Activity hAPJ SPA EC50 IP
human APJ receptor, sequence (P35414 whole entry): as above
In short: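 Agonist-stimulated [35S]GTPγS binding measured on membranes of a stable human APJ CHO line, 90 min at room temperature, with GDP, MgCl2 and NaCl levels optimized beforehand. Means of independent runs fitted by non-linear regression to give EC50.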

SMILES | pEC50 [3] | further results
CCCCc1nc(Cl)c(CO)n1Cc1ccc(-c2ccccc2-c2nn[nH]n2)cc1 [losartan] | – | effect on APJ agonist-induced positive cooperativity [1]: relieved this cooperativity
C[C@H](CS)C(=O)N1CCC[C@H]1C(=O)O [Captopril, captopril] | – | contractility or ejection fraction [2]: does not show a marked improvement
COCC1(n2c(NS(=O)(=O)[C@@H](C)[C@H](OC)c3ncc(Cl)cn3)nnc2[C@H]2C[C@H](CO)C2)CC1 (single isomer, unassigned) [Example 132.0, (1R,2S)-1-(5-chloro-2-pyrimidinyl)-N-(5-(trans-3-(hydroxymethyl)cyclobutyl)-4-(1-(methoxymethyl)cyclopropyl)-4H-1,2,4-triazol-3-yl)-1-methoxy-2-propanesulfonamide or (1R,2S)-1-(5-chloro-2-pyrimidinyl)-N-(5-(cis-3-(hydroxymethyl)cyclobutyl)-4-(1-(methoxymethyl)cyclopropyl)-4H-1,2,4-triazol-3-yl)-1-methoxy-2-propanesulfonamide] | 5.90 | –
COc1cccc(OC)c1-n1c(NS(=O)(=O)[C@@H](C)[C@H](C)c2cnc(C)cn2)nnc1C1CCC1 [Example 139.0] | 7.54 | –
